One experiment has as its target BRM (Homo sapiens, UniProt P51531). Kind of experiment: ATPase catalytic activity assay of BRM (ADP-Glo). Format: biochemical. Particulars: for IC50: read-out: BRM IC50 (μM)*. The essentials: (§1)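 Measurement is luminescence, reflecting ADP produced by ATPase turnover. The two-step ADP-Glo detection consists of ATP depletion for 40 min and ADP-to-ATP conversion with luciferase for 60 min, both at room temperature.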
In general terms: In ADP-Glo the light output rises with the ADP produced.

Another experiment addresses BRG-1 (Homo sapiens, UniProt P51532). As to the kind of experiment: ATPase catalytic activity assay of BRG-1 (ADP-Glo). Format: biochemical. As to conditions: for IC50: read-out: BRG1 IC50 (μM)*. An outline of the steps: as §1
[1] abbreviates: ATPase catalytic activity, ADP-Glo, 30 nM BRG-1, 400 μM ATP.
Setting [2] is: ATPase catalytic activity, ADP-Glo, 30 nM BRG-1, 400 μM ATP, read-out: BRG1 Max % Inhibition.
Where [3] appears, read: ATPase catalytic activity, ADP-Glo.
[4] abbreviates: ATPase catalytic activity, ADP-Glo, read-out: BRG1 Max % Inhibition.

Where two headings read alike, the source gives them in different places.

BRM, sequence (P51531 whole entry): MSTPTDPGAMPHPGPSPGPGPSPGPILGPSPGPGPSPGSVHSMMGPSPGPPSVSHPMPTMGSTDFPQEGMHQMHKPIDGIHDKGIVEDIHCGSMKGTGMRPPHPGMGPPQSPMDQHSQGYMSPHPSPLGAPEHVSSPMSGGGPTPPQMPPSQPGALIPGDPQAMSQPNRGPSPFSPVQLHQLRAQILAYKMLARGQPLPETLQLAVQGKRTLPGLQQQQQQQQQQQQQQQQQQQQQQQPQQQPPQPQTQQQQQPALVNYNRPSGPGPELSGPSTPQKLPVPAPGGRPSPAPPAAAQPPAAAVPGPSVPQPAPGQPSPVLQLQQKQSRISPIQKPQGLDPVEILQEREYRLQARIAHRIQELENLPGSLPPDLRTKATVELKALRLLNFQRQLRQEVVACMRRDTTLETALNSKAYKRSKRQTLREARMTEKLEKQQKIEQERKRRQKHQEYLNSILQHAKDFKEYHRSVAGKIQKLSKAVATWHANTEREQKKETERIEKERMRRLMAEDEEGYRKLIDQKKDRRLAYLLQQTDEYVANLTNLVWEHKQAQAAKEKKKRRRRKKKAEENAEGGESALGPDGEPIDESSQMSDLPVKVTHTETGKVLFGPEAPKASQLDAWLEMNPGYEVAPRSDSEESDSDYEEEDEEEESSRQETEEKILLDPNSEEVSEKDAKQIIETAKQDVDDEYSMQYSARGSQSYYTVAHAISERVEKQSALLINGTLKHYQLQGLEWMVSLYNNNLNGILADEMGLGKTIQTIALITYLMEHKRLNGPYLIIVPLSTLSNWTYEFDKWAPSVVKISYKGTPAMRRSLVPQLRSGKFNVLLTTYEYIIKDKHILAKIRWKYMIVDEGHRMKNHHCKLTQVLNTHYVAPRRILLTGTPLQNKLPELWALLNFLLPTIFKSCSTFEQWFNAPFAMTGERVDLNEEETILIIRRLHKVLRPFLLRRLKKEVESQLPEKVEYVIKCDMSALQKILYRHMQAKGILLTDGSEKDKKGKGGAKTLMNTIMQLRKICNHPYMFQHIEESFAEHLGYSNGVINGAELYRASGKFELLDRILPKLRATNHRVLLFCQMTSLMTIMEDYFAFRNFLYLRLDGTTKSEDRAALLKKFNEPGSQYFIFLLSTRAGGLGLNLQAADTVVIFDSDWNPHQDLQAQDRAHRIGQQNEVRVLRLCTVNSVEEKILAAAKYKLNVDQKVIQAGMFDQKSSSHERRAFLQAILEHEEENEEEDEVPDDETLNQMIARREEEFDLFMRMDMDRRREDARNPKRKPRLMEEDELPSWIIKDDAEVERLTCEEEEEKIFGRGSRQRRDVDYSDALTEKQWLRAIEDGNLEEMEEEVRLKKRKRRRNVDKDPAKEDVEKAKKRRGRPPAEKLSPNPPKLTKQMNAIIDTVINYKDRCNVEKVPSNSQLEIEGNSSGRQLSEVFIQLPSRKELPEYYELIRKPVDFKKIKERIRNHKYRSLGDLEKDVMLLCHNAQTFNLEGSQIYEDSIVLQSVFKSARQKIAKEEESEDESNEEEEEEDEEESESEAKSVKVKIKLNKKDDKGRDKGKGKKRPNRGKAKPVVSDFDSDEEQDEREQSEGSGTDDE
BRG-1, sequence (P51532 whole entry): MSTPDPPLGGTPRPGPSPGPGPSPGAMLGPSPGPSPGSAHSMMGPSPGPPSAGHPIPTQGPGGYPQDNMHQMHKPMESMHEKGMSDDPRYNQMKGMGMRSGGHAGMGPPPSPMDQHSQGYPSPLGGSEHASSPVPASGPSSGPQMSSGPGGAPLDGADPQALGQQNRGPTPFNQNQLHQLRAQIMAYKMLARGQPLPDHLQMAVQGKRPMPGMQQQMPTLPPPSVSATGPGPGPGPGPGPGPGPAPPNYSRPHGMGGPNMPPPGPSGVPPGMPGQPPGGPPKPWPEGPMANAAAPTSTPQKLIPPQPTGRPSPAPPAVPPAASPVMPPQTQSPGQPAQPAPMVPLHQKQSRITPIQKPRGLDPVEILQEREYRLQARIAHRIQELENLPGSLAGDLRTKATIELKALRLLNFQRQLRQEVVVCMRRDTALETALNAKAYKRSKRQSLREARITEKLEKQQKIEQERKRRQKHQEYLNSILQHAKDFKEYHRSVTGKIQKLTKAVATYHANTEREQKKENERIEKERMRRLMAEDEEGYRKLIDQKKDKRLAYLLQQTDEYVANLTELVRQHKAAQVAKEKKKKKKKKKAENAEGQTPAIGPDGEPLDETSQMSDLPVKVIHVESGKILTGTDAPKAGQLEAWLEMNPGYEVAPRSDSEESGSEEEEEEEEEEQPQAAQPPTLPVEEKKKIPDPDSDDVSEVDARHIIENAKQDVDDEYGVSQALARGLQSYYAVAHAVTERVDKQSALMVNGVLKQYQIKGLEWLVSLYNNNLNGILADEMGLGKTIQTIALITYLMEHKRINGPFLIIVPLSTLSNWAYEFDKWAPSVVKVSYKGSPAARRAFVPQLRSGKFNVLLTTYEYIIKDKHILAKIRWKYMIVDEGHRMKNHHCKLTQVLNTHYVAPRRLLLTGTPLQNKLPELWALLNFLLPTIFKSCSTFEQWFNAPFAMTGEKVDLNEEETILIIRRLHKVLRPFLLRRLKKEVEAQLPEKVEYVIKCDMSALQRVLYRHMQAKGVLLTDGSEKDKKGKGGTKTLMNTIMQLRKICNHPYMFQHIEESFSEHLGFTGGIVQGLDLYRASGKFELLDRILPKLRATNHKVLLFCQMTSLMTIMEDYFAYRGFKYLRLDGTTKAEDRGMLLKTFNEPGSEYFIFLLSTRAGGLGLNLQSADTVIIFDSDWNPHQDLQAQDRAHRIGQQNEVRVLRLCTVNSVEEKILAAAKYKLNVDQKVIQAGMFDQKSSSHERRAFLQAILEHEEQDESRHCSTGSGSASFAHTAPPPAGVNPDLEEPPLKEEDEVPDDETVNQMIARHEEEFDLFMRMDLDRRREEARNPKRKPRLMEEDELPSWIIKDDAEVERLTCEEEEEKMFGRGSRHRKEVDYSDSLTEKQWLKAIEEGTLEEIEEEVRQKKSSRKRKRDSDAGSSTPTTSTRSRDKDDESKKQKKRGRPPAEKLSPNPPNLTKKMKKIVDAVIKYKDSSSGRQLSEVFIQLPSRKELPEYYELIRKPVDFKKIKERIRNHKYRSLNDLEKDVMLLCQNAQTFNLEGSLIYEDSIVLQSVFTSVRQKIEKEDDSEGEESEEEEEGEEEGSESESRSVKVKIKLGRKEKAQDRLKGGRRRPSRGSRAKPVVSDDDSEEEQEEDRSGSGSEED

As usually defined, the IC50 is the point on the concentration scale where inhibition reaches its midpoint. As for `C[C@H](NC(=O)c1ccc2c(c1)C(C)(CO)CC2)C(=O)Nc1nc(-c2cccc(N3CCC3)c2)cs1` (stereo in doubt) [Compound 414, (S)-N-((S)-1-((4-(3-(azetidin-1-yl)phenyl)thiazol-2-yl)amino)-1-oxopropan-2-yl)-3-(hydroxymethyl)-3-methyl-2,3-dihydro-1H-indene-5-carboxamide], at BRM (30 nM BRM, 400 μM ATP), the “BRM Max % Inhibition” value is given as more than 95% and the IC50 was in the range of 0.1 to 1 µM. The IC50 at BRG-1 (setting [1]) is 0.1 to 1 µM. Further, at BRG-1 (setting [2]), the Emax is more than 95%.
As to `CC(C)S(=O)(=O)c1cccc(C(=O)NCC(=O)Nc2nc(-c3cccc(-c4cc(Cl)cc(Cl)c4)c3)cs2)c1` [Compound 30, N-(2-((4-(3′,5′-dichloro-[1,1′-biphenyl]-3-yl)thiazol-2-yl)amino)-2-oxoethyl)-3-(isopropylsulfonyl)benzamide], the “BRM Max % Inhibition” value at BRM is listed as more than 90%. Besides, the IC50 on BRM was 0.1 to 1 µM; at BRG-1 (setting [3]), 1 to 5 µM.
Take `Cc1cc(-c2cccc(-c3csc(NC(=O)CNC(=O)c4cccc(C(C)(C)CO)c4)n3)c2)nc(C)n1` [Compound 94]: at BRM, the “BRM Max % Inhibition” value is recorded as more than 95% and the IC50 was less than 0.1 µM. Further, at BRG-1 (setting [3]), the “BRG1 Max % Inhibition” value is on record as more than 95% and the IC50 was less than 0.1 µM.
`Cc1cc(-c2cccc(-c3csc(NC(=O)CNC(=O)c4ccc(C)c(C(C)(C)CN)c4)n3)c2)cc(C)n1` [Compound 92]: at BRM, the “BRM Max % Inhibition” value is listed as more than 95%. For the same compound, the results for the IC50 on BRM and at BRG-1 (setting [3]) were less than 0.1 µM and 0.1 to 1 µM, respectively. On BRG-1 (setting [4]), the Emax was more than 95%.
As to `Cc1nccc(-c2cccc(-c3csc(NC(=O)CNC(=O)c4ccc5c(c4)[C@@](C)(CO)CCC5)n3)n2)n1` [Compound 211, (4S)-4-(hydroxymethyl)-4-methyl-N-[2-[[4-[6-(2-methylpyrimidin-4-yl)-2-pyridyl]thiazol-2-yl]amino]-2-oxo-ethyl]tetralin-6-carboxamide], at BRM, the “BRM Max % Inhibition” value is reported as more than 80% and the IC50 lay within 0.1 to 1 µM. The IC50 on BRG-1 (setting [3]) was more than 5 µM. Further, the Emax at BRG-1 (setting [4]) is more than 40%.
In the case of `CN1CCc2ccc(-c3csc(NC(=O)CNC(=O)c4ccc5c(c4)[C@@](C)(CO)CC5)n3)cc2C1=O` [Compound 258, (S)-3-(hydroxymethyl)-3-methyl-N-(2-((4-(2-methyl-1-oxo-1,2,3,4-tetrahydroisoquinolin-7-yl)thiazol-2-yl)amino)-2-oxoethyl)-2,3-dihydro-1H-indene-5-carboxamide], at BRM, the “BRM Max % Inhibition” value is listed as more than 80% and the IC50 lay within 0.1 to 1 µM. Further, on BRG-1 (setting [3]), the “BRG1 Max % Inhibition” value is on record as more than 60% and the IC50 lay in the range of 1 to 5 µM.
For the compound `COC(=O)N1CCC[C@H](c2csc(NC(=O)CNC(=O)c3ccc4c(c3)C(C)(F)COC4)n2)C1` (stereo in doubt) [Compound 301, methyl (S)-3-(2-(2-((R)-4-fluoro-4-methylisochromane-6-carboxamido)acetamido)thiazol-4-yl)piperidine-1-carboxylate], the “BRM Max % Inhibition” value on BRM is given as more than 95%. The IC50 was in the range of 0.1 to 1 µM at BRM and 1 to 5 µM at BRG-1 (setting [3]). For the same compound, at BRG-1 (setting [4]), the Emax is more than 95%.
The corresponding values for `CN1C(=O)CCc2ccc(-c3csc(NC(=O)CNC(=O)c4ccc5c(c4)[C@](C)(CO)CC5)n3)cc21` [Compound 180, (R)-3-(hydroxymethyl)-3-methyl-N-(2-((4-(1-methyl-2-oxo-1,2,3,4-tetrahydroquinolin-7-yl)thiazol-2-yl)amino)-2-oxoethyl)-2,3-dihydro-1H-indene-5-carboxamide] are more than 90%, 0.1 to 1 µM, 1 to 5 µM and more than 60%.
For `C[C@@H]1CN(c2cccc(-c3csc(NC(=O)CNC(=O)c4ccc5c(c4)CCCO5)n3)n2)C[C@H](C)O1` [Compound 370, N-(2-((4-(6-((cis)-2,6-dimethylmorpholino)pyridin-2-yl)thiazol-2-yl)amino)-2-oxoethyl)chromane-6-carboxamide], on BRM, the “BRM Max % Inhibition” value is recorded as more than 65% and the IC50 was in the range of 0.1 to 1 µM. In addition, the IC50 on BRG-1 (setting [3]) was more than 5 µM. Besides, the Emax on BRG-1 (setting [4]) is more than 65%.
The corresponding values for `C[C@@H]1CN(c2cccc(-c3csc(NC(=O)CNC(=O)c4ccc5c(c4)CCOC5)n3)n2)C[C@H](C)O1` [Compound 366, N-(2-((4-(6-((cis)-2,6-dimethylmorpholino)pyridin-2-yl)thiazol-2-yl)amino)-2-oxoethyl)isochromane-6-carboxamide] are more than 85%, less than 0.1 µM, 0.1 to 1 µM and more than 85%.
On the same counts, the results for `Cc1cc(-c2cccc(-c3csc(NC(=O)CNC(=O)c4ccc(C)c(C(C)(C)CN)c4)n3)n2)ncn1` [Compound 201, 3-(2-amino-1,1-dimethyl-ethyl)-4-methyl-N-[2-[[4-[6-(6-methylpyrimidin-4-yl)-2-pyridyl]thiazol-2-yl]amino]-2-oxo-ethyl]benzamide] are more than 95%, less than 0.1 µM, 0.1 to 1 µM and more than 90%.
Consider `COc1cccc(-c2csc(NC(=O)CNC(=O)c3ccc4c(c3)[C@](C)(C#N)COC4)n2)c1` [Compound 401, (R)-4-cyano-N-(2-((4-(3-methoxyphenyl)thiazol-2-yl)amino)-2-oxoethyl)-4-methylisochromane-6-carboxamide], for which, at BRM, the “BRM Max % Inhibition” value is more than 95%. Also, the IC50 on BRM was less than 0.1 µM; on BRG-1 (setting [3]), 0.1 to 1 µM. In addition, at BRG-1 (setting [4]), the Emax is more than 95%.
Consider `C[C@@H]1CN(c2cccc(-c3csc(NC(=O)CNC(=O)c4cc(C(C)(C)C)ncc4F)n3)c2)C[C@H](C)O1` [Compound 383, 2-(tert-butyl)-N-(2-((4-(3-((cis)-2,6-dimethylmorpholino)phenyl)thiazol-2-yl)amino)-2-oxoethyl)-5-fluoroisonicotinamide], for which, on BRM, the “BRM Max % Inhibition” value is reported as more than 85% and the IC50 fell in the range of 0.1 to 1 µM. For the same compound, the IC50 at BRG-1 (setting [3]) is more than 5 µM. The Emax at BRG-1 (setting [4]) was more than 85%.
For `C[C@@]1(C#N)COCc2ccc(C(=O)NCC(=O)Nc3nc(-c4cccc([C@@]56CCOC[C@@H]5C6)c4)cs3)cc21` [Compound 294, (R)-N-(2-((4-(3-((1R,6S)-3-oxabicyclo[4.1.0]heptan-6-yl)phenyl)thiazol-2-yl)amino)-2-oxoethyl)-4-cyano-4-methylisochromane-6-carboxamide], at BRM, the “BRM Max % Inhibition” value is more than 95% and the IC50 was less than 0.1 µM. Further, the IC50 at BRG-1 (setting [3]) lay within 0.1 to 1 µM. For the same compound, the Emax at BRG-1 (setting [4]) was more than 95%.
Consider `C[C@@]1(C#N)COCc2ccc(C(=O)NCC(=O)Nc3nc(-c4cccc([C@]56CCOC[C@H]5C6)c4)cs3)cc21` [Compound 295, (R)-N-(2-((4-(3-((1S,6R)-3-oxabicyclo[4.1.0]heptan-6-yl)phenyl)thiazol-2-yl)amino)-2-oxoethyl)-4-cyano-4-methylisochromane-6-carboxamide], for which the “BRM Max % Inhibition” value on BRM is listed as more than 95%. The values for the IC50 on BRM and at BRG-1 (setting [3]) were less than 0.1 µM and 0.1 to 1 µM, respectively. In addition, the Emax at BRG-1 (setting [4]) was more than 95%.
As for `COc1cccc(-c2csc(NC(=O)CNC(=O)c3cc(F)c4c(c3)C(C)(O)COC4)n2)c1` (stereo in doubt) [Compound 280, (R)-8-fluoro-4-hydroxy-N-(2-((4-(3-methoxyphenyl)thiazol-2-yl)amino)-2-oxoethyl)-4-methylisochromane-6-carboxamide], at BRM, the “BRM Max % Inhibition” value was more than 90% and the IC50 was in the range of 0.1 to 1 µM. Also, the IC50 at BRG-1 (setting [3]) is 1 to 5 µM. Further, the Emax on BRG-1 (setting [4]) is more than 90%.
Turning to `C[C@@H]1CN(c2cccc(-c3csc(NC(=O)CNC(=O)c4ccc5c(c4)C(C#N)(CO)CCO5)n3)c2)C[C@H](C)O1` (stereo partly drawn) [Compound 444, 4-cyano-N-(2-((4-(3-((cis)-2,6-dimethylmorpholino)phenyl)thiazol-2-yl)amino)-2-oxoethyl)-4-(hydroxymethyl)chromane-6-carboxamide], on BRM (30 nM BRM, 400 μM ATP), the “BRM Max % Inhibition” value is given as more than 95% and the IC50 was less than 0.1 µM. Besides, the IC50 at BRG-1 (setting [1]) was in the range of 0.1 to 1 µM. Besides, the Emax on BRG-1 (setting [2]) is more than 95%.
As to `CC(C)(CO)c1cccc(C(=O)NCC(=O)Nc2nc(-c3cccc(N4CCC(O)CC4)c3)cs2)c1` [Compound 247, 3-(2-hydroxy-1,1-dimethyl-ethyl)-N-[2-[[4-[3-(4-hydroxy-1-piperidyl)phenyl]thiazol-2-yl]amino]-2-oxo-ethyl]benzamide], on BRM, the “BRM Max % Inhibition” value is listed as more than 95% and the IC50 lay within 0.1 to 1 µM. In addition, at BRG-1 (setting [3]), the IC50 lay within 0.1 to 1 µM. For the same compound, the Emax at BRG-1 (setting [4]) was more than 80%.
Consider `COc1cccc(-c2csc(NC(=O)CNC(=O)c3ccc4c(c3)[C@@](C)(F)CCOC4)n2)c1` [Compound 278, (S)-5-fluoro-N-(2-((4-(3-methoxyphenyl)thiazol-2-yl)amino)-2-oxoethyl)-5-methyl-1,3,4,5-tetrahydrobenzo[c]oxepine-7-carboxamide], for which, at BRM, the “BRM Max % Inhibition” value is more than 90% and the IC50 fell in the range of 0.1 to 1 µM. The IC50 on BRG-1 (setting [3]) is more than 5 µM. Further, the Emax on BRG-1 (read-out: BRG1 Max % Inhibition, ATPase catalytic activity, ADP-Glo) is more than 90%.
In the case of `COc1cccc(-c2csc(NC(=O)CNC(=O)c3ccc4c(c3)C(C)(C#N)CCO4)n2)c1` (stereo in doubt) [Compound 431, (S)-4-cyano-N-(2-((4-(3-methoxyphenyl)thiazol-2-yl)amino)-2-oxoethyl)-4-methylchromane-6-carboxamide], on BRM (30 nM BRM, 400 μM ATP), the “BRM Max % Inhibition” value was more than 95% and the IC50 is less than 0.1 µM. In addition, on BRG-1 (setting [1]), the IC50 was in the range of 0.1 to 1 µM. Also, the Emax at BRG-1 (setting [2]) was more than 95%.

The record behind these values is patent US12685735B2 (Foghorn Therapeutics Inc., priority 2020, dated 2026).
